Measurements reported in ChEMBL document CHEMBL2163222 (J Med Chem, 2012).

What was measured:
[1] = Growth inhibition of human OE21 cells after 3 days by MTT assay; type: functional, cell-based; conditions: OE21, 72 h
[2] = system: OE33; assay: Growth inhibition of human OE33 cells after 3 days by MTT assay; type: functional, cell-based; conditions: OE33, 72 h
[3] = system: Hs 683; assay: cells; conditions: Homo sapiens, Hs 683, 72 h
[4] = system: T98G; assay: cells; conditions: Homo sapiens, 72 h
[5] = cells; conditions: Homo sapiens, U373 MG, 72 h

| Structure (SMILES) | IC50 [3] | IC50 [4] | IC50 [5] | IC50 [1] | IC50 [2] |
| --- | --- | --- | --- | --- | --- |
| Cc1nccc2c1[nH]c1cc(OCCO)ccc12 | 41 µM | 53 µM | 42 µM | 30 µM | 63 µM |
| Cc1c2c(cc[n+]1CCO)c1ccc(OCc3ccccc3)cc1n2Cc1ccccc1 | 31 µM | 61 µM | 9 µM | 25 µM |  |
| Cc1nccc2c1[nH]c1cc(OCc3ccccc3)ccc12 | 17 µM | 17 µM | 9.3 µM | 21 µM | 4.1 µM |
| Cc1nccc2c3ccc(OCCC(C)C)cc3n(CCC(C)C)c12 | 30 µM | 35 µM | 33 µM | 30 µM |  |
| Cc1nccc2c3ccc(OCc4cccc(F)c4)cc3n(Cc3cccc(F)c3)c12 | 18 µM | 27 µM | 0.4 µM | 7.9 µM | 16 µM |
| Cc1nccc2c1[nH]c1cc(OCC(C)C)ccc12 | 23 µM | 22 µM | 24 µM | 12 µM | 25 µM |
| COc1ccc2c(c1)[nH]c1c(C)nccc12 [HARMINE] |  | 24 µM | 32 µM | 32 µM | 18 µM |
| CCCn1c2cc(OCc3ccccc3)ccc2c2ccnc(C)c21 | 13 µM | 34 µM | 26 µM | 23 µM | 9 µM |
| Cc1nccc2c1[nH]c1cc(OCC3CCCCC3)ccc12 | 22 µM | 7.2 µM | 7.5 µM | 8.3 µM | 8.1 µM |
| Cc1c2c(cc[n+]1Cc1ccc(F)cc1)c1ccc(OCc3ccc(F)cc3)cc1n2Cc1ccc(F)cc1 | 13 µM | 14 µM | 2.9 µM | 3.7 µM | 3.1 µM |
| Cc1nccc2c1[nH]c1cc(OC(=O)c3ccccc3)ccc12 | 53 µM | 42 µM | 27 µM | 30 µM | 31 µM |
| Cc1nccc2c1[nH]c1cc(OCc3cccc4ccccc34)ccc12 | 19 µM | 12 µM | 7.4 µM | 33 µM | 8.2 µM |
| C=CCOc1ccc2c(c1)[nH]c1c(C)nccc12 | 28 µM | 32 µM | 32 µM | 27 µM | 30 µM |
| Cc1nccc2c1[nH]c1cc(OCCc3ccccc3)ccc12 | 21 µM | 21 µM | 9.1 µM | 14 µM | 7.9 µM |
| Cc1nccc2c1[nH]c1cc(OCCCC(F)(F)F)ccc12 | > 100 µM | 86 µM | > 100 µM | > 100 µM | > 100 µM |
| Cc1nccc2c3ccc(O)cc3n(Cc3ccccc3)c12 | 79 µM | 81 µM | 80 µM | 35 µM | 35 µM |
| Cc1nccc2c3ccc(OCc4ccc(F)cc4)cc3n(Cc3ccc(F)cc3)c12 | 17 µM | 14 µM | 30 µM | 15 µM | 25 µM |
| Cc1nccc2c1[nH]c1cc(OCc3ccncc3)ccc12 | 8.1 µM | 3.6 µM | 2.5 µM | 5 µM | 6.3 µM |
| Cc1nccc2c1[nH]c1cc(OCc3ccccn3)ccc12 | 20 µM | 20 µM | 21 µM | 16 µM | 23 µM |

Second part, led by results:

| IC50 [3] | IC50 [4] | IC50 [5] | Structure (SMILES) | IC50 [1] | IC50 [2] |
| --- | --- | --- | --- | --- | --- |
| 3.1 µM | 5.7 µM | 0.88 µM | CCCn1c2cc(OCc3ccccc3)ccc2c2cc[n+](Cc3ccc(F)cc3)c(C)c21 | 1.9 µM | 1 µM |
| 3.6 µM | 5.6 µM | 3.9 µM | Cc1c2[nH]c3cc(OCc4ccccc4)ccc3c2cc[n+]1Cc1ccccc1 | 6 µM | 5.5 µM |
| 1.6 µM | 0.6 µM | 0.6 µM | Cc1c2c(cc[n+]1Cc1ccc(F)cc1)c1ccc(OCc3ccccc3)cc1n2Cc1ccccc1 | 0.61 µM | 2.4 µM |
| 0.9 µM | 0.4 µM | 0.43 µM | Cc1c2c(cc[n+]1Cc1ccccc1)c1ccc(OCc3ccc(F)cc3)cc1n2Cc1ccc(F)cc1 | 0.5 µM | 1.4 µM |
| 1.2 µM | 0.43 µM | 0.5 µM | Cc1c2c(cc[n+]1Cc1ccccc1F)c1ccc(OCc3ccc(F)cc3)cc1n2Cc1ccc(F)cc1 | 1.6 µM | 1.6 µM |
| 0.45 µM | 1.8 µM | 0.39 µM | CCCn1c2cc(OCc3ccccc3)ccc2c2cc[n+](Cc3ccccc3F)c(C)c21 | 0.42 µM | 0.25 µM |
| 0.47 µM | 0.6 µM | 0.38 µM | Cc1c2c(cc[n+]1Cc1ccccc1)c1ccc(OCCC(C)C)cc1n2CCC(C)C |  |  |
| 2.8 µM | 0.97 µM | 0.8 µM | Cc1c2c(cc[n+]1Cc1ccccc1)c1ccc(OCc3cccc(F)c3)cc1n2Cc1cccc(F)c1 | 0.4 µM | 2.9 µM |
| 0.25 µM | 0.07 µM | 1.4 µM | Cc1c2c(cc[n+]1Cc1ccccc1F)c1ccc(OCC3CCCCC3)cc1n2CC1CCCCC1 | 0.35 µM | 0.35 µM |
| 2.2 µM | 0.7 µM | 0.6 µM | Cc1c2c(cc[n+]1Cc1ccccc1F)c1ccc(OCc3cccc(F)c3)cc1n2Cc1cccc(F)c1 | 1.4 µM | 3 µM |
| 3.1 µM | 2 µM | 0.04 µM | Cc1c2c(cc[n+]1Cc1ccc(F)cc1)c1ccc(OCC3CCCCC3)cc1n2CC1CCCCC1 | 1.4 µM | 1 µM |
| 0.26 µM | 0.41 µM | 0.22 µM | Cc1c2c(cc[n+]1CCC(C)C)c1ccc(OCCC(C)C)cc1n2CCC(C)C | 0.48 µM |  |
| 0.37 µM | 1.2 µM | 0.39 µM | Cc1c2c(cc[n+]1CCC(C)C)c1ccc(OCc3ccccc3)cc1n2Cc1ccccc1 | 0.5 µM |  |
| 0.42 µM | 0.43 µM | 0.4 µM | Cc1c2c(cc[n+]1CCC(C)C)c1ccc(OCC3CCCCC3)cc1n2CC1CCCCC1 |  |  |
| 0.31 µM | 0.26 µM | 0.2 µM | Cc1c2c(cc[n+]1CCc1ccccc1)c1ccc(OCC3CCCCC3)cc1n2CC1CCCCC1 |  |  |
| 0.44 µM | 0.37 µM | 0.5 µM | Cc1c2c(cc[n+]1Cc1ccccc1F)c1ccc(OCc3ccccc3)cc1n2Cc1ccccc1 | 0.38 µM | 0.7 µM |
| 4 µM | 2.9 µM | 2.5 µM | Cc1c2c(cc[n+]1CCO)c1ccc(OCCC(C)C)cc1n2CCC(C)C | 7.6 µM |  |
| 2.3 µM | 2.4 µM | 2 µM | Cc1c2c(cc[n+]1CCc1ccccc1)c1ccc(OCc3ccccc3)cc1n2Cc1ccccc1 | 2.4 µM |  |
| 0.6 µM | 11 µM | 2.5 µM | CCC[n+]1ccc2c3ccc(OCc4ccccc4)cc3n(Cc3ccccc3)c2c1C | 3.4 µM |  |
| 3.1 µM | 3.5 µM | 3.4 µM | Cc1c2c(cc[n+]1CCc1ccccc1)c1ccc(OCCC(C)C)cc1n2CCC(C)C | 3.7 µM |  |
| 2.6 µM | 1.7 µM | 0.41 µM | CCCn1c2cc(OCc3ccccc3)ccc2c2cc[n+](Cc3ccccc3)c(C)c21 | 0.57 µM | 0.3 µM |
| 3.8 µM | 2.6 µM | 1.7 µM | Cc1c2c(cc[n+]1CCO)c1ccc(OCC3CCCCC3)cc1n2CC1CCCCC1 |  |  |
| 0.6 µM | 3.1 µM | 0.7 µM | CCCCCC[n+]1ccc2c3ccc(OCc4ccccc4)cc3n(Cc3ccccc3)c2c1C | 1.9 µM |  |
